Results as given in paper PMC8447191, “Peptide Amphiphilic-Based Supramolecular Structures with Anti-HIV-1 Activity” (Bioconjugate Chemistry, 2021).
Like-named read-outs stand apart in the source and are kept apart here. *1 amine or outer side, *2 acyl side, *3 side chain or, on linkers, in order; H or OH if unused. Where a SMILES comes first, the peptide text is derived from it. Side-chain parts run from the residue outwards. The star is where a group is joined. X1 = CC(C)CCC[C@@H](C)[C@H]1CC[C@H]2[C@@H]3CC=C4C[C@@H](OC(=O)CSC[C@H](N)C(=O)*)CC[C@]4(C)[C@H]3CC[C@]12C; PEG28 = NCCOCCOCCOCCOCCOCCOCCOCCOCCOCCOCCOCCOCCOCCOCCOCCOCCOCCOCCOCCOCCOCCOCCOCCOCCOCCOCCOCCOCCC(=O)O; N(octadecyl)2 = CCCCCCCCCCCCCCCCCCN(CCCCCCCCCCCCCCCCCC)*; NHOctadecyl = CCCCCCCCCCCCCCCCCCN*; Suc = O=C(CCC(=O)[*:2])[*:1]

Experiments:
[1] = MTT cytotoxicity assay; assay type: cell-based; settings: human, HeLa-env cells, PAs coassembled with 5% FAM, 40-2.3 μM, absorbance 560 nm
Description: The metabolic activity of the cell line, related to the cytotoxic effect of the compounds to be tested, is measured after 24 h using the MTT assay. This assay is based on the metabolic reduction of 3-(4,5-dimethylthiazol-2-yl)-2,5-diphenyl-2H-tetrazolium bromide (MTT), carried out by the mitochondrial enzyme succinate dehydrogenase, in a colored compound of blue color (formazan) that can be monitored by absorbance spectroscopy at 560 nm, allowing determination of the mitochondrial functionality of the treated cells.
The HeLa-env cell line is seeded in 96-well plates with an initial density of 15,000 cells per well in 100 μL of culture medium (Dulbecco’s modified Eagle’s medium, DMEM, with 10% FBS added) and incubated for 24 h at 37 °C and 5% CO2 to allow their adhesion. The cell monolayers are washed with PBS, and then 100 μL of PAs formulations (peptide amphiphiles coassembled with 5% FAM) are added in a concentration range from 40 μM to 2.3 μM. The plates are kept in incubation for further 24 h.
At the end of the incubation time, the cells are incubated for 3 h with 1 mg/mL of MTT, dissolved in culture medium without FBS, to allow the formation of formazan crystals. Subsequently, 100 μL of DMSO are added to wells, stirring the plates for 30 min at room temperature to facilitate the complete dissolution of the crystals. Finally, the absorbance at 560 nm is measured in a microplate reader.
The results are expressed as relative percentage between absorbance of PA formulations against absorbance of its DMSO controls and CC50 and CC25 values are taken from dose–response curves.

[2] = test system: HIV-1BaL; assay type: cell-based; settings: for IC50 / IC95: HIV-1BaL, TZM-bl cells, peptide 10-0.00061 μM for 1 h at 37 °C before virus, luciferase after 48 h, sigmoid fit, mean of triplicates; for SI (CC50/IC50): ratio of CC50 (MTT assay) to IC50 (HIV-1BaL, TZM-bl cells)
Description: HIV-1BaL[52] was provided by the NIH AIDS Research & Reference Reagent Program (http://www.aidsreagent.org/). Viral stock was prepared by passage through activated PBMCs[53] for 11 days.
Luciferase-reporter HeLa cells stably transfected to express CD4 and CCR5; TZM-bl cells[54]−[56] were grown in Dulbecco’s Minimal Essential Medium (DMEM) (Sigma-Aldrich, Inc., St. Louis, MO) containing 10% fetal calf serum (FCS), 2 mM L-glutamine, and antibiotics (100 U of penicillin/mL, 100 μg of streptomycin/mL) at 37 °C in an atmosphere containing 5% CO2.
(§1) All inhibition assays in cellular and tissue explants models were performed using a standardized amount of virus culture supernatant normalized for infectivity. TZM-bl cells were incubated with serial dilutions of peptides (from 10 μM to 0.00061 μM) for 1 h at 37 °C, prior to challenge with HIV-1BaL. Luciferase expression (r.l.u. values) was determined after 48 h. Alternatively, tissue explants were incubated with serial dilutions of peptide (from 100 μM to 0.1 μM) for 1 h before virus (10^4 TCID50/mL) was added for 2 h. Explants were then washed four times with PBS to remove unbound virus and drug. Colorectal explants were then transferred onto gelfoam rafts (Welbeck Pharmaceuticals, UK) and cultured for 15 days as described previously[57] […]. Explants were cultured for up to 15 days in the absence of peptide. Approximately 50% of the supernatants were harvested every 2–3 days and explants were re-fed with fresh media. The extent of viral replication in tissue explants was determined by measuring the p24 antigen concentration in supernatants (INNOTEST HIV antigen mAb; Fujirebio Europe, Belgium). The extent of inhibition by each peptide was calculated. The percentage of inhibition was normalized relative to the r.l.u, for TZM-bl cells, or p24, for tissue explants, values obtained for cells or explants cultured in the absence of virus (100% inhibition) and for cells or explants infected with virus in the absence of peptide (0% inhibition). Data are the mean (±SEM) of triplicates. When a dose–response curve was obtained, IC50 and, if possible, IC95 values were calculated from sigmoid curve fits (GraphPad Prism). For all curves, R^2 is >0.7.

[3] = Visual stability and aspect of POPC vesicles mixed with PAs (SAXS samples); assay type: physicochemical; settings: POPC 20 mM + 2 mM PA, 0.5% DMSO
Description: In Figure 5A,B, we show the spectra corresponding to POPC 20 mM and POPC 20 mM + 2 mM PAs (all of them in the presence of 0.5% DMSO). The band centered at 1.2 nm^–1 and the secondary band at 3.2 nm^–1 were typical of unilamellar vesicles.[35]
The incorporation of PAs had some distinct consequences. The first and more obvious one is the distinction between stable and unstable systems.

[4] = test system: HIV-1BaL; assay type: cell-based; settings: colorectal tissue explants, peptide 100-0.1 μM for 1 h before and 2 h during virus (pulse, 3 h), p24 ELISA at day 15, mean (SEM) of triplicates
Description: Human tissue explants: Surgically resected specimens of colorectal tissues were collected from HIV negative patients at St. Mary’s Hospital, Imperial College Healthcare NHS Trust, London, UK. All tissues were collected after receiving signed informed consent from all patients through the Imperial College Healthcare Tissue Bank approved by Research Ethics Committee Wales (IRAS 17/WA/0161). On arrival in the laboratory, resected tissue was cut into 2–3 mm^3 explants comprising both epithelial and muscularis mucosae as described previously.[57] Tissue explants were maintained with DMEM containing 10% fetal calf serum, 2 mM L-glutamine, and antibiotics (100 U of penicillin/mL, 100 μg of streptomycin/mL, 80 μg of gentamicin/mL) at 37 °C in an atmosphere containing 5% CO2.
as §1

[5] = not given; remark: listed apart in the source
[6] = not given; remark: listed apart in the source

| SMILES | CC50 at 24 h [1] [µM] | IC50 [2] [nM] | lamellar characteristic distance [nm] | stability / aspect of the sample [3] | IC50 [4] [nM] | IC95 [4] | IC95 [2] [µM] | SI (CC50/IC50) [2] | Trp fluorescence emission maximum (λmax) [5] [nm] | lamellar liquid crystal periodicity [6] [nm] |
| --- | --- | --- | --- | --- | --- | --- | --- | --- | --- | --- |
| CC[C@H](C)[C@H](NC(=O)[C@@H](NC(=O)CNC(=O)[C@H](CCCNC(=N)N)NC(=O)[C@H](Cc1c[nH]c2ccccc12)NC(=O)[C@H](Cc1ccccc1)NC(=O)[C@H](CC(=O)O)NC(=O)[C@H](Cc1ccccc1)NC(=O)[C@@H]1CCCN1C(=O)[C@@H](NC(=O)[C@H](CCCCN)NC(=O)[C@H](Cc1c[nH]c2ccccc12)NC(=O)[C@H](CC(C)C)NC(=O)[C@H](Cc1ccc(O)cc1)NC(=O)[C@H](CCC(=O)O)NC(=O)[C@H](CC(C)C)NC(=O)[C@@H](NC(=O)[C@@H](N)Cc1c[nH]c2ccccc12)[C@@H](C)CC)C(C)C)C(C)C)C(=O)N[C@@H](CCCCNC(=O)CCOCCOCCOCCOCCOCCOCCOCCOCCOCCOCCOCCOCCOCCOCCOCCOCCOCCOCCOCCOCCOCCOCCOCCOCCOCCOCCOCCOCCNC(=O)[C@@H](N)CSCC(=O)O[C@H]1CC[C@@]2(C)C(=CC[C@H]3[C@@H]4CC[C@H]([C@H](C)CCCC(C)C)[C@@]4(C)CC[C@@H]32)C1)C(N)=O [C-PAchol] (H-WILEYLWKVPFDFWRGVIK([PEG28-X1])-NH2) | > 40 | 1710 | 4.9 | bluish | – | – | – | – | – | – |
| CCCCCCCCCCCCCCCCCCN(CCCCCCCCCCCCCCCCCC)C(=O)CCC(=O)NCCOCCOCCOCCOCCOCCOCCOCCOCCOCCOCCOCCOCCOCCOCCOCCOCCOCCOCCOCCOCCOCCOCCOCCOCCOCCOCCOCCOCCC(=O)NCCCC[C@H](NC(=O)[C@@H](NC(=O)[C@@H](NC(=O)CNC(=O)[C@H](CCCNC(=N)N)NC(=O)[C@H](Cc1c[nH]c2ccccc12)NC(=O)[C@H](Cc1ccccc1)NC(=O)[C@H](CC(=O)O)NC(=O)[C@H](Cc1ccccc1)NC(=O)[C@@H]1CCCN1C(=O)[C@@H](NC(=O)[C@H](CCCCN)NC(=O)[C@H](Cc1c[nH]c2ccccc12)NC(=O)[C@H](CC(C)C)NC(=O)[C@H](Cc1ccc(O)cc1)NC(=O)[C@H](CCC(=O)O)NC(=O)[C@H](CC(C)C)NC(=O)[C@@H](NC(=O)[C@@H](N)Cc1c[nH]c2ccccc12)[C@@H](C)CC)C(C)C)C(C)C)[C@@H](C)CC)C(N)=O [C-PAdialkyl] (H-WILEYLWKVPFDFWRGVIK([PEG28-Suc-N(octadecyl)2])-NH2) | 25 | – | 5.7 | bluish | – | – | – | – | – | – |
| CCCCCCCCCCCCCCCCCCNC(=O)CCC(=O)NCCOCCOCCOCCOCCOCCOCCOCCOCCOCCOCCOCCOCCOCCOCCOCCOCCOCCOCCOCCOCCOCCOCCOCCOCCOCCOCCOCCOCCC(=O)NCCCC[C@H](NC(=O)[C@@H](NC(=O)[C@@H](NC(=O)CNC(=O)[C@H](CCCNC(=N)N)NC(=O)[C@H](Cc1c[nH]c2ccccc12)NC(=O)[C@H](Cc1ccccc1)NC(=O)[C@H](CC(=O)O)NC(=O)[C@H](Cc1ccccc1)NC(=O)[C@@H]1CCCN1C(=O)[C@@H](NC(=O)[C@H](CCCCN)NC(=O)[C@H](Cc1c[nH]c2ccccc12)NC(=O)[C@H](CC(C)C)NC(=O)[C@H](Cc1ccc(O)cc1)NC(=O)[C@H](CCC(=O)O)NC(=O)[C@H](CC(C)C)NC(=O)[C@@H](NC(=O)[C@@H](N)Cc1c[nH]c2ccccc12)[C@@H](C)CC)C(C)C)C(C)C)[C@@H](C)CC)C(N)=O [C-PAmonoalkyl] (H-WILEYLWKVPFDFWRGVIK([PEG28-Suc-NHOctadecyl])-NH2) | 20 | 80 | 4.7 | bluish | 3480 | 24.29 (3.61) μM | 5.60 | 250 | – | – |
| CC[C@H](C)[C@H](NC(=O)[C@@H](NC(=O)CNC(=O)[C@H](CCCNC(=N)N)NC(=O)[C@H](Cc1c[nH]c2ccccc12)NC(=O)[C@H](Cc1ccccc1)NC(=O)[C@H](CC(=O)O)NC(=O)[C@H](Cc1ccccc1)NC(=O)[C@@H]1CCCN1C(=O)[C@@H](NC(=O)[C@H](CCCCN)NC(=O)[C@H](Cc1c[nH]c2ccccc12)NC(=O)[C@H](CC(C)C)NC(=O)[C@H](Cc1ccc(O)cc1)NC(=O)[C@H](CCC(=O)O)NC(=O)[C@H](CC(C)C)NC(=O)[C@@H](NC(=O)[C@@H](N)Cc1c[nH]c2ccccc12)[C@@H](C)CC)C(C)C)C(C)C)C(N)=O [E1P47] (H-WILEYLWKVPFDFWRGVI-NH2) | – | 7260 | – | – | – | – | 28.21 | – | 356 | – |
| CC[C@H](C)[C@H](NC(=O)[C@@H](NC(=O)CNC(=O)[C@H](CCCNC(=N)N)NC(=O)[C@H](Cc1c[nH]c2ccccc12)NC(=O)[C@H](Cc1ccccc1)NC(=O)[C@H](CC(=O)O)NC(=O)[C@H](Cc1ccccc1)NC(=O)[C@@H]1CCCN1C(=O)[C@@H](NC(=O)[C@H](CCCCNC(=O)CCOCCOCCOCCOCCOCCOCCOCCOCCOCCOCCOCCOCCOCCOCCOCCOCCOCCOCCOCCOCCOCCOCCOCCOCCOCCOCCOCCOCCNC(=O)[C@@H](N)CSCC(=O)O[C@H]1CC[C@@]2(C)C(=CC[C@H]3[C@@H]4CC[C@H]([C@H](C)CCCC(C)C)[C@@]4(C)CC[C@@H]32)C1)NC(=O)[C@H](Cc1c[nH]c2ccccc12)NC(=O)[C@H](CC(C)C)NC(=O)[C@H](Cc1ccc(O)cc1)NC(=O)[C@H](CCC(=O)O)NC(=O)[C@H](CC(C)C)NC(=O)[C@@H](NC(=O)[C@@H](N)Cc1c[nH]c2ccccc12)[C@@H](C)CC)C(C)C)C(C)C)C(N)=O [K-PAchol] (H-WILEYLWK([PEG28-X1])VPFDFWRGVI-NH2) | > 40 | 90 | – | bluish | – | – | – | – | – | 4.8 |
| CCCCCCCCCCCCCCCCCCNC(=O)CCC(=O)NCCOCCOCCOCCOCCOCCOCCOCCOCCOCCOCCOCCOCCOCCOCCOCCOCCOCCOCCOCCOCCOCCOCCOCCOCCOCCOCCOCCOCCC(=O)N[C@@H](Cc1c[nH]c2ccccc12)C(=O)N[C@H](C(=O)N[C@@H](CC(C)C)C(=O)N[C@@H](CCC(=O)O)C(=O)N[C@@H](Cc1ccc(O)cc1)C(=O)N[C@@H](CC(C)C)C(=O)N[C@@H](Cc1c[nH]c2ccccc12)C(=O)N[C@@H](CCCCN)C(=O)N[C@H](C(=O)N1CCC[C@H]1C(=O)N[C@@H](Cc1ccccc1)C(=O)N[C@@H](CC(=O)O)C(=O)N[C@@H](Cc1ccccc1)C(=O)N[C@@H](Cc1c[nH]c2ccccc12)C(=O)N[C@@H](CCCNC(=N)N)C(=O)NCC(=O)N[C@H](C(=O)N[C@H](C(N)=O)[C@@H](C)CC)C(C)C)C(C)C)[C@@H](C)CC [N-PAmonoalkyl] ({NHOctadecyl-Suc-PEG28}-WILEYLWKVPFDFWRGVI-NH2) | 17 | 200 | – | precipitated rather fast and made compact flocks | 280 | 2.53 (1.14) μM | 5.87 | 85 | – | – |
